# Where “and” joins values, the source holds several entries; their conditions need not be identical. Equal entries are not always repeated. Toxic doses and inconclusive results are not listed.
# Test system: P388 leukemia ip, CD2F1 mice, survival T/C
# Test: NCI In Vivo Anticancer Drug Screen. Data for tumor model P388 Leukemia (intraperitoneal) in CD2F1 (CDF1) mice
# Conditions: endpoint: median survival time, higher = longer survival
# Procedure, shortened: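 Mice carrying the transplanted tumor received test compound or vehicle. Survival was recorded in each group, and the value is the treated-group measurement divided by that of the vehicle-treated control group.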
# [1] = dose: 12.5 mg/kg/injection, schedule: Q01DX009 (ip), vehicle: saline with Tween-80
# [2] = dose: 25.0 mg/kg/injection, schedule: Q01DX009 (ip), vehicle: saline with Tween-80
# [3] = dose: 50.0 mg/kg/injection, schedule: Q01DX009 (ip), vehicle: saline with Tween-80
# [4] = dose: 100.0 mg/kg/injection, schedule: Q01DX009 (ip), vehicle: saline with Tween-80
# [5] = dose: 200.0 mg/kg/injection, schedule: Q01DX009 (ip), vehicle: saline with Tween-80
# [6] = dose: 60.0 mg/kg/injection, schedule: Q01DX005 (ip), vehicle: saline with Tween-80
# [7] = dose: 120.0 mg/kg/injection, schedule: Q01DX005 (ip), vehicle: saline with Tween-80
# [8] = dose: 240.0 mg/kg/injection, schedule: Q01DX005 (ip), vehicle: saline with Tween-80
# [9] = dose: 15.0 mg/kg/injection, schedule: Q01DX005 (ip), vehicle: saline with Tween-80
# [10] = dose: 30.0 mg/kg/injection, schedule: Q01DX005 (ip), vehicle: saline with Tween-80
# [11] = dose: 25.0 mg/kg/injection, schedule: Q04DX003 (ip), vehicle: saline with Tween-80
# [12] = dose: 50.0 mg/kg/injection, schedule: Q04DX003 (ip), vehicle: saline with Tween-80
# [13] = dose: 100.0 mg/kg/injection, schedule: Q04DX003 (ip), vehicle: saline with Tween-80
smiles,measurement,setting,value
COC(=O)CC1(C(=O)OC)c2sc(-c3ccccc3)c(-c3ccccc3)c2N2CCCC21 (stereo unspecified),T/C,"dose: 11.25 mg/kg/injection, schedule: Q01DX009 (ip), vehicle: Klucel (hydroxypropylcellulose) (HPC)",97 % of control
same,T/C,"dose: 22.5 mg/kg/injection, schedule: Q01DX009 (ip), vehicle: Klucel (hydroxypropylcellulose) (HPC)",97 % of control
same,T/C,"dose: 45.0 mg/kg/injection, schedule: Q01DX009 (ip), vehicle: Klucel (hydroxypropylcellulose) (HPC)",97 % of control
CN(C)CCCNc1c2ccccc2nc2c1c(=O)n(C)c(=O)n2C,T/C,"dose: 60.0 mg/kg/injection, schedule: Q01DX005 (ip), vehicle: saline",101 % of control
same,T/C,"dose: 120.0 mg/kg/injection, schedule: Q01DX005 (ip), vehicle: saline",107 % of control
COc1ccc(CN2CCCN(/N=C/c3c4c(O)c5c(O)c(C)c6c(c5c3O)C(=O)C(C)(O/C=C/C(OC)C(C)C(OC(C)=O)C(C)C(O)C(C)C(O)C(C)/C=C/C=C(C)C(=O)N4)O6)CC2)cc1 (stereo unspecified),T/C,[1],109 % of control
same,T/C,[2],117 % of control
same,T/C,[3],103 % of control and 97 % of control
same,T/C,[4],100 % of control
same,T/C,[5],97 % of control
CCOc1c(N=Nc2ccccc2Cl)c(-c2ccccc2)nn1C(N)=S,T/C,"dose: 50.0 mg/kg/injection, schedule: Q01DX005 (ip), vehicle: saline with Tween-80",94 % of control
same,T/C,"dose: 100.0 mg/kg/injection, schedule: Q01DX005 (ip), vehicle: saline with Tween-80",90 % of control
same,T/C,"dose: 200.0 mg/kg/injection, schedule: Q01DX005 (ip), vehicle: saline with Tween-80",102 % of control
CN(C)c1ccc2c(c1)Oc1cc(N(C)C)ccc1C21c2ccccc2C(=O)N1N,T/C,"dose: 100.0 mg/kg/injection, schedule: Q04DX002 (ip), vehicle: saline with Tween-80",100 % of control
same,T/C,"dose: 200.0 mg/kg/injection, schedule: Q04DX002 (ip), vehicle: saline with Tween-80",90 % of control
same,T/C,"dose: 400.0 mg/kg/injection, schedule: Q04DX002 (ip), vehicle: saline with Tween-80",90 % of control
Clc1c(CBr)ccc(CBr)c1Cl,T/C,[1],100 % of control
same,T/C,[2],100 % of control
same,T/C,[3],115 % of control
COc1nc2c(c(O)cn2C2OCC(OC(C)=O)C(OC(C)=O)C2OC(C)=O)c(=O)n1C (stereo unspecified),T/C,"dose: 100.0 mg/kg/injection, schedule: Q01DX001 (ip), vehicle: saline with Tween-80",106 % of control
same,T/C,"dose: 200.0 mg/kg/injection, schedule: Q01DX001 (ip), vehicle: saline with Tween-80",92 % of control
same,T/C,"dose: 400.0 mg/kg/injection, schedule: Q01DX001 (ip), vehicle: saline with Tween-80",99 % of control
COc1ccc2c(=O)c(-c3ccc(OC)c(OC)c3OC)coc2c1,T/C,"dose: 100.0 mg/kg/injection, schedule: Q04DX003 (ip), vehicle: Klucel (hydroxypropylcellulose) (HPC)",99 % of control
same,T/C,"dose: 200.0 mg/kg/injection, schedule: Q04DX003 (ip), vehicle: Klucel (hydroxypropylcellulose) (HPC)",100 % of control
same,T/C,"dose: 400.0 mg/kg/injection, schedule: Q04DX003 (ip), vehicle: Klucel (hydroxypropylcellulose) (HPC)",99 % of control
COc1ccc2cc(N3CCCC3)ccc2c1,T/C,"dose: 25.0 mg/kg/injection, schedule: Q04DX003 (ip), vehicle: saline",105 % of control
same,T/C,"dose: 50.0 mg/kg/injection, schedule: Q04DX003 (ip), vehicle: saline",96 % of control
same,T/C,"dose: 100.0 mg/kg/injection, schedule: Q04DX003 (ip), vehicle: saline",100 % of control and 104 % of control
same,T/C,"dose: 400.0 mg/kg/injection, schedule: Q04DX003 (ip), vehicle: saline",107 % of control
CCCCCCCCCCCC[N+](C)([O-])CCCCCC[N+](C)([O-])CCCCCCCCCCCC (stereo unspecified),T/C,"dose: 12.5 mg/kg/injection, schedule: Q01DX009 (ip), vehicle: Klucel (hydroxypropylcellulose) (HPC)",96 % of control
same,T/C,"dose: 25.0 mg/kg/injection, schedule: Q01DX009 (ip), vehicle: Klucel (hydroxypropylcellulose) (HPC)",95 % of control
same,T/C,"dose: 50.0 mg/kg/injection, schedule: Q01DX009 (ip), vehicle: Klucel (hydroxypropylcellulose) (HPC)",100 % of control and 95 % of control
O=N[O-].O=N[O-].[Co].[NH-]CC[N-]CCO.[NH-]CC[N-]CCO,T/C,"dose: 6.25 mg/kg/injection, schedule: Q01DX009 (ip), vehicle: saline",95 % of control
same,T/C,"dose: 12.5 mg/kg/injection, schedule: Q01DX009 (ip), vehicle: saline",99 % of control
same,T/C,"dose: 25.0 mg/kg/injection, schedule: Q01DX009 (ip), vehicle: saline",94 % of control
same,T/C,"dose: 50.0 mg/kg/injection, schedule: Q01DX009 (ip), vehicle: saline",95 % of control
O=Nc1ccc(Cn2cc(Br)c(=O)[nH]c2=O)o1,T/C,"dose: 25.0 mg/kg/injection, schedule: Q01DX001 (ip), vehicle: Klucel (hydroxypropylcellulose) (HPC)",113 % of control
same,T/C,"dose: 50.0 mg/kg/injection, schedule: Q01DX001 (ip), vehicle: Klucel (hydroxypropylcellulose) (HPC)",100 % of control
same,T/C,"dose: 100.0 mg/kg/injection, schedule: Q01DX001 (ip), vehicle: Klucel (hydroxypropylcellulose) (HPC)",108 % of control
N#CC1(C#N)CC1c1ccccc1 (stereo unspecified),T/C,[6],105 % of control
same,T/C,[7],96 % of control
same,T/C,[8],96 % of control
CNC1C(O)C2Oc3c(cc(O)c4c3C(=O)c3cc5c(c(O)c3C4=O)C(OC3OC(C)C(OC)C(C)(OC)C3OC)CC(C)(O)C5)C(C)(O2)C1O (stereo unspecified),T/C,"dose: 2.06 mg/kg/injection, schedule: Q04DX003 (ip), vehicle: other",97 % of control
same,T/C,"dose: 4.12 mg/kg/injection, schedule: Q04DX003 (ip), vehicle: other",102 % of control
same,T/C,"dose: 8.25 mg/kg/injection, schedule: Q04DX003 (ip), vehicle: other",103 % of control
same,T/C,"dose: 16.5 mg/kg/injection, schedule: Q04DX003 (ip), vehicle: other",124 % of control
same,T/C,"dose: 33.0 mg/kg/injection, schedule: Q04DX003 (ip), vehicle: other",124 % of control
CNc1ccccc1C(=O)C(=O)O,T/C,[4],105 % of control
same,T/C,[5],102 % of control
same,T/C,"dose: 400.0 mg/kg/injection, schedule: Q01DX009 (ip), vehicle: saline with Tween-80",100 % of control
O=C1Nc2cccnc2NC2=C1CSC2,T/C,[6],110 % of control
same,T/C,[7],97 % of control
same,T/C,[8],98 % of control
C=[CH][Sn][CH2]CCC,T/C,"dose: 100.0 mg/kg/injection, schedule: Q01DX009 (ip), vehicle: Klucel (hydroxypropylcellulose) (HPC)",112 % of control
COc1ccc2c(c1)C(O)(CN)CCCCC(OC)CCCC2 (stereo unspecified),T/C,"dose: 7.5 mg/kg/injection, schedule: Q01DX005 (ip), vehicle: saline with Tween-80",100 % of control
same,T/C,[9],101 % of control
same,T/C,[10],99 % of control
same,T/C,[6],101 % of control
CN(C)S(=O)(=O)c1cccc(N)c1,T/C,[11],93 % of control
same,T/C,[12],95 % of control
same,T/C,[13],100 % of control
same,T/C,"dose: 200.0 mg/kg/injection, schedule: Q04DX003 (ip), vehicle: saline with Tween-80",94 % of control
CCCN=C(N)c1ccc(NC(=O)c2ccc(C(=O)Nc3ccc(C(N)=NCCC)cc3)cc2)cc1,T/C,"dose: 6.25 mg/kg/injection, schedule: Q04DX003 (ip), vehicle: saline with Tween-80",154 % of control
same,T/C,"dose: 12.5 mg/kg/injection, schedule: Q04DX003 (ip), vehicle: saline with Tween-80",163 % of control
same,T/C,[2],122 % of control
same,T/C,[11],154 % of control
same,T/C,[3],90 % of control
same,T/C,[12],213 % of control
same,T/C,[13],100 % of control
O=NN(C(=O)NC1CC1)C1CCCC1,T/C,"dose: 25.0 mg/kg/injection, schedule: Q01DX001 (ip), vehicle: distilled water + Tween-80",103 % of control
same,T/C,"dose: 50.0 mg/kg/injection, schedule: Q01DX001 (ip), vehicle: distilled water + Tween-80",109 % of control
same,T/C,"dose: 100.0 mg/kg/injection, schedule: Q01DX001 (ip), vehicle: distilled water + Tween-80",102 % of control
same,T/C,"dose: 200.0 mg/kg/injection, schedule: Q01DX001 (ip), vehicle: distilled water + Tween-80",111 % of control
same,T/C,"dose: 400.0 mg/kg/injection, schedule: Q01DX001 (ip), vehicle: distilled water + Tween-80",102 % of control
CC1(C)Oc2ccc3ccccc3c2C(c2ccc(O)cc2)=C1c1ccccc1,T/C,"dose: 50.0 mg/kg/injection, schedule: Q01DX005 (ip), vehicle: Klucel (hydroxypropylcellulose) (HPC)",103 % of control
same,T/C,"dose: 100.0 mg/kg/injection, schedule: Q01DX005 (ip), vehicle: Klucel (hydroxypropylcellulose) (HPC)",99 % of control
same,T/C,"dose: 200.0 mg/kg/injection, schedule: Q01DX005 (ip), vehicle: Klucel (hydroxypropylcellulose) (HPC)",94 % of control
CC(C)=CC(=O)CC(O)(C(F)(F)F)C(F)(F)Cl (stereo unspecified),T/C,[2],109 % of control
C[Si](CCCNCCN)(O[Si](C)(CCCNCCN)c1ccccc1)c1ccccc1 (stereo unspecified),T/C,[9],109 % of control
same,T/C,[10],105 % of control
same,T/C,[6],100 % of control
